Measurements taken from the NIST ThermoML archive (doi:10.1021/je049656o).

Test: mn = molality of the nth substance listed, in mol/kg
Settings: 298.15 K, 101.33 kPa, Liquid

Oc1ncc(Cl)c(O)n1 [5-chloro-2,4-pyrimidinedione] + CO
Settings | molar enthalpy of solution [kcal/mol]
m1 = 0.000652 | 2.12
m1 = 0.000899 | 2.3
m1 = 0.000901 | 2.29
m1 = 0.000954 | 2.23
m1 = 0.000982 | 2.11
m1 = 0.001245 | 2.12

O=c1cc[nH]c(=O)[nH]1 [2,4(1H,3H)-pyrimidinedione] + CO
Settings | molar enthalpy of solution [kcal/mol]
m1 = 0.000848 | 3.57
m1 = 0.000858 | 3.6
m1 = 0.00105 | 3.34
m1 = 0.00109 | 3.34
m1 = 0.001223 | 3.27
m1 = 0.001317 | 3.27

O=c1[nH]cc(C(F)(F)F)c(=O)[nH]1 [5-(trifluoromethyl)uracil] + CO
Settings | molar enthalpy of solution [kcal/mol]
m1 = 0.000648 | 3.83
m1 = 0.000687 | 3.95
m1 = 0.000724 | 3.75
m1 = 0.00076 | 3.6
m1 = 0.000813 | 3.59
m1 = 0.000845 | 3.78

O=c1[nH]cc(Br)c(=O)[nH]1 [5-bromouracil] + CO
Settings | molar enthalpy of solution [kcal/mol]
m1 = 0.000472 | 3.53
m1 = 0.000548 | 3.35
m1 = 0.000563 | 3.73
m1 = 0.00102 | 3.59
m1 = 0.001023 | 3.61
m1 = 0.00125 | 3.48

O=c1[nH]cc(F)c(=O)[nH]1 [5-fluoro-2,4(1H,3H)-pyrimidinedione] + CO
Settings | molar enthalpy of solution [kcal/mol]
m1 = 0.000844 | 3.46
m1 = 0.000963 | 3.44
m1 = 0.001039 | 3.41
m1 = 0.00126 | 3.43
m1 = 0.001578 | 3.42
m1 = 0.001848 | 3.47

O=c1cc(Cl)[nH]c(=O)[nH]1 [6-chlorouracil] + CO
Settings | molar enthalpy of solution [kcal/mol]
m1 = 0.000624 | 4.02
m1 = 0.000862 | 4.06
m1 = 0.000948 | 4.13
m1 = 0.001116 | 4.04
m1 = 0.001609 | 4.28
m1 = 0.00168 | 4.15

O=c1[nH]cc(I)c(=O)[nH]1 [5-iodouracil] + CO
Settings | molar enthalpy of solution [kcal/mol]
m1 = 0.000481 | 4.37
m1 = 0.000487 | 4.35
m1 = 0.000551 | 4.22
m1 = 0.000618 | 4.37
m1 = 0.000626 | 4.31
m1 = 0.000769 | 4.2
